Source: US7153841B2, “Metal substituted non-centrosimmetrical phthalocyanine analogues, their preparation and use in photodynamic therapy and in vivo diagnostic” (L. Molteni & C. Dei Fratelli Alitti Societa Di Esercizio …, priority 2001, dated 2006)

Tests used:
Assay type in all cases: cell-based
[1] = biological target: T1, repeat D of type III FN like of human Tenascin (TN) (Homo sapiens, UniProt P24821); experiment: Binding specificity of labelled antibody by immunohystochemistry on human fibroblasts (GM6114); conditions: shown by immunohystochemistry experiments
T1 construct: determined by immunohystochemistry on human fibroblasts (GM6114); endogenous in cells; host or cells: human fibroblasts (GM6114)
Source text: Monoclonal Antibody α-D specific for the repeat D of type III FN like of human Tenascin (TN) (Balza et al. FEBS, 332,39 1993) has been labelled by using the compound of Ex. 4.
The labelling procedure has been carried out with the monoclonal bound to the Sepharose 4b immobilised antigen, represented from the recombinant TN containing repeats B,C,D type III FN-like.

[2] = system: human fibroblasts; experiment: Lack of non specific toxicity on human fibroblasts, with or without red light; conditions: DMEM 10% FCS, up to 40 μM
Protocol: The lack of non specific toxicity has been assessed by using human fibroblasts cultured for six days. Aliquots of the compound according to Ex. 4 at various concentrations have been added to cells in DMEM 10% FCS. After treatment the cell were irradiated for 10 min with red light (Intralux 4000 equipped with filter BP700/100Chroma Technology Corp.). In a parallel experiment cells were treated with the same amounts of compound of Ex. 4, however no light was provided.

[3] = system: C. albicans; experiment: Photoinactivation of C. albicans (CFU vs. concentration, FIG. 1)
Source text: FIG. 1 represents the variation of the colony forming units (CFU) of C. albicans vs. the concentration (μM) of the compounds according to Examples 7 and 8,indicated in the FIGURE as MRLP 090 and MRLP 091 respectively.
The following example refer to the activity against C. albicans.

T1 sequence (P24821 23-2201): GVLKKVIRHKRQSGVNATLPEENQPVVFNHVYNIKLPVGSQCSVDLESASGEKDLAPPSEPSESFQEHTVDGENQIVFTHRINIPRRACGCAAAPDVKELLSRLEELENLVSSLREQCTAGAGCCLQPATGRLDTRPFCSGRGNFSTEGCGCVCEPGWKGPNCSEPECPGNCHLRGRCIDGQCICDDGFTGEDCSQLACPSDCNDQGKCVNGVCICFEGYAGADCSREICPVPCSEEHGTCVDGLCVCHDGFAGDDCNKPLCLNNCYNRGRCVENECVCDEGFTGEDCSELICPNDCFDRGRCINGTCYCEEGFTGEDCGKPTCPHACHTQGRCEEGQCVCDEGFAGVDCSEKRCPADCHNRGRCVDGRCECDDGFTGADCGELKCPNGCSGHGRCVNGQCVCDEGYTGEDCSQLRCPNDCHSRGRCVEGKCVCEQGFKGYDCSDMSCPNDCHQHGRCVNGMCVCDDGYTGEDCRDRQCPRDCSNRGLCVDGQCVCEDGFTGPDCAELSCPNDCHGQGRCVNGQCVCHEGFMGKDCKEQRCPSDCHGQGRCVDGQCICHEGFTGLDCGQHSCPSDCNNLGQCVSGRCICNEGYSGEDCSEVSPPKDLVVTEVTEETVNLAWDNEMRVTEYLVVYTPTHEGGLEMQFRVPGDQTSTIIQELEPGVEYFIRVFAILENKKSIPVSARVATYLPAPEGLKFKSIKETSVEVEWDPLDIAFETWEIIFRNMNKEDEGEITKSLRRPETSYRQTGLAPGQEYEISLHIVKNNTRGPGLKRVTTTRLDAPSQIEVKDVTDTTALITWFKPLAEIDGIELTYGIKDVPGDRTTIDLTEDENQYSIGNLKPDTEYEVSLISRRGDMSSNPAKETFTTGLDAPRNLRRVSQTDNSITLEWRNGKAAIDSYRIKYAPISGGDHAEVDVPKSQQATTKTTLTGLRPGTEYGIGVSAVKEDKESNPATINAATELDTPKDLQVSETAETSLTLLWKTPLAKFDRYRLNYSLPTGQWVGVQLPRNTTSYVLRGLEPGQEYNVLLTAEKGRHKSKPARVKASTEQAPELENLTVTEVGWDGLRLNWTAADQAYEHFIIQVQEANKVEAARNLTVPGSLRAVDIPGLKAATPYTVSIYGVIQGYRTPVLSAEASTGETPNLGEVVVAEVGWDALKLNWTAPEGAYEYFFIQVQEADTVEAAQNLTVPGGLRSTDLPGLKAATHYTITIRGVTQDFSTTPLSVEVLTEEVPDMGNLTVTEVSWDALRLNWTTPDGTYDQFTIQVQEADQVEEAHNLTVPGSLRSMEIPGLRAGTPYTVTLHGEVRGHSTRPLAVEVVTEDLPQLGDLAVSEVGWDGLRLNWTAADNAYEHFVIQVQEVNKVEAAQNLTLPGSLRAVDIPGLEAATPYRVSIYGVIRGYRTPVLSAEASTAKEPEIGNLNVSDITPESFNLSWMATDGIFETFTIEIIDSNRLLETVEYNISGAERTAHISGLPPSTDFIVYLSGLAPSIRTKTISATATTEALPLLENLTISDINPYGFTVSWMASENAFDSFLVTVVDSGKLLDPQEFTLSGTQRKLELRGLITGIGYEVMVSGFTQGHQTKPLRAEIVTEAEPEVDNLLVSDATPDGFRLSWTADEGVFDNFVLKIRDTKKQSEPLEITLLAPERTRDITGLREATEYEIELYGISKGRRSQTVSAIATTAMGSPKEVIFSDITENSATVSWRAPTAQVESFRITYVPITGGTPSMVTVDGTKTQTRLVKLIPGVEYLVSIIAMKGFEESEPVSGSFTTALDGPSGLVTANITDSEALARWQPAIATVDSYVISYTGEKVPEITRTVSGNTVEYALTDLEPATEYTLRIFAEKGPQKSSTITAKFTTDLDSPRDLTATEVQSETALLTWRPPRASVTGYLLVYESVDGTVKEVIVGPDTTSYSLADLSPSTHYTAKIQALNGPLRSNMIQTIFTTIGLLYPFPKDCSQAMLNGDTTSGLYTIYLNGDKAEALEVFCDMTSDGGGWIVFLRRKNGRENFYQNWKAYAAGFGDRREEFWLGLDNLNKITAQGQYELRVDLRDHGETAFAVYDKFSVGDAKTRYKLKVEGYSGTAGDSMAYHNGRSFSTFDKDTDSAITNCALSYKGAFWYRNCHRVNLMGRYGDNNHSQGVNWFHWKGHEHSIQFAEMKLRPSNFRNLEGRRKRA

| Substance | aggregation or protein denaturation of the antibody on labelling [1] | mortality or morphology in comparison to not treated-not irradiated cells ([2]; irradiated 10 min with red light) | mortality or morphology in comparison to not treated-not irradiated cells ([2]; no light provided) | photoinactivation of C. albicans (variation of colony forming units vs. concentration, μM) [3] |
| --- | --- | --- | --- | --- |
| 2-[(4-hydroxycarbonyl)phenoxy]-1(4),8(11),15(18),22(25)-tri[2 -(morfolin-1-yl) ethoxy] zinc(II)phthalocyanine [Example 4] | does not cause aggregation to occur or protein denaturation | No differences in mortality or morphology | No differences in mortality or morphology | – |
| 2-[(4-hydroxycarbonyl)phenoxy]-8(11),15(18),22(25)-tri[3-(trimethylammonium) phenoxy]zinc(II) phthalocyanine triiodide [Example 8] | – | – | – | photoinactivation |
| 2-[(4-hydroxycarbonyl)phenoxy]-9(10),16(17),23(24)-tri[3-(trimethylammonium) phenoxy]zinc(II)phthalocyanine triiodide [Example 7] | – | – | – | photoinactivation |
